In brackets after ≈: the same amount, converted by molar mass.
How the values were obtained:
[1] = Solubility in lipofullerene base, confirmed by a turbidometer
Experimental: Each of the above mixtures were sonicated for 30 seconds followed by vortexing for 12 hours in the dark.

Water solubility = format: physicochemical; details: read-out: Water solublity
AsPC-1 cells = assay: Xenograft studies; format: in vivo, nude mice; details: oral gavage, 1 mg of triptolide/1 mL of C60-olive oil base, ~28 days
Experimental: AsPC-1 cells were purchased from American Type Culture Collection (ATCC). Cells were harvested from sub-confluent cultures after brief exposure to 0.25% trypsin and 0.2% EDTA. The cells were washed once in serum-free medium and re-suspended thereafter in PBS. Only suspensions consisting of single cells with >90% viability were used for the injections. Mice were injected with 1.5×10^6 cells sub-cutaneously (S.C) on the right side of hind leg of each mouse using a 23-gauge needle. After tumor transplant, the mice were observed daily for one week, before randomly assigning them to the treatment groups (n=5). The animals thereafter received triptolide (1 mg of triptolide/1 mL of C60-olive oil base) by oral gavage starting on day 15 or on tumor volume reaching ˜40-70 mm^3. The treatment was continued until ˜28 days from first dose. […] Tumor size was measured once a week. At the end of the experimental period, the animals were euthanized.

Compound	solubility (Water solubility) [µg/mL]	Fold solubility ([1]; 12 h)	also measured
CC[C@@]1(O)C(=O)OCc2c1cc1n(c2=O)Cc2cc3ccccc3nc2-1 [camptothecin]	107 (≈ 307 µM)	–	Fold solubility ([1]; lipofullerene base compared to solubility in water): 5
CC(=O)O[C@H]1C(=O)[C@@]2(C)[C@H]([C@H](OC(=O)c3ccccc3)[C@]3(O)C[C@H](OC(=O)[C@H](O)[C@@H](NC(=O)c4ccccc4)c4ccccc4)C(C)=C1C3(C)C)[C@]1(OC(C)=O)CO[C@@H]1C[C@@H]2O [paclitaxel]	5.56 (≈ 6.51 µM)	90	–
CC(C)[C@]12O[C@H]1[C@@H]1O[C@]13[C@]1(O[C@H]1C[C@H]1C4=C(CC[C@@]13C)C(=O)OC4)[C@@H]2O [triptolide]	–	–	tumor size (AsPC-1 cells; 50 μg/kg): tumor regression was observed; tumor size (AsPC-1 cells; 100 μg/kg): tumor regression was observed; tumor size (AsPC-1 cells; 250 μg/kg): tumor regression was observed; amount of triptolide dissolved in lipofullerene base ([1]; lipofullerene base of Example 1, nitrogen gas atmosphere, stirred for 2 hours): About 2 gm/1000 mL
CC[C@]1(O)C[C@H]2CN(CCc3c([nH]c4ccccc34)[C@@](C(=O)OC)(c3cc4c(cc3OC)N(C=O)[C@H]3[C@@](O)(C(=O)OC)[C@H](OC(C)=O)[C@]5(CC)C=CCN6CC[C@]43[C@@H]65)C2)C1 [vincristine]	30 (≈ 36.4 µM)	17	–
C#Cc1cccc(Nc2ncnc3cc(OCCOC)c(OCCOC)cc23)c1 [erlotinib]	400 (≈ 1020 µM)	3	–
CC(=O)O[C@@]12CO[C@@H]1C[C@H](O)[C@@]1(C)C(=O)[C@H](O)C3=C(C)[C@@H](OC(=O)[C@H](O)[C@@H](NC(=O)OC(C)(C)C)c4ccccc4)C[C@@](O)([C@@H](OC(=O)c4ccccc4)[C@H]21)C3(C)C [docetaxel]	–	>100	–

— patent publication US10342797B2, “Solubility of therapeutic agents” (LivePet LLC, priority 2016, dated 2019)
